According to patent US20160060209A1, “BIS A[…] COMPLEXES FOR X-RAY IMAGING” (BAYER PHARMA AKTIENGESELLSCHAFT üß, priority 2013, published 2016):

Test: Stability of bis azainositol hafnium complexes in aqueous buffered solution on heat treatment (steam autoclave)
Assay type: physicochemical
Details: aqueous buffered solution pH 7.4, 5 mmol/L, 121° C. for 45 minutes in steam autoclave; HPLC peak area ratio x metal concentration ratio (ICP-OES)
Experimental: The stability of bis azainositol hafnium complexes was determined in aqueous, buffered solution at pH 7.4. The solution containing 5 mmol/L of the compound in a tightly sealed vessel was heated to 121° C. for 45 minutes in a steam autoclave. The hafnium concentration of the solution was determined by ICP-OES before and after heat treatment. The integrity of the compound was determined by HPLC analysis before and after heat treatment. Absolute stability was calculated as the ratio of the peak area of the compound after and before the heat treatment multiplied with the ratio of the metal concentration of the solution after and before heat treatment.
HPLC system: Column 1: Reversed phase C18.
Solvent A1: 0.5 mM tetrabutylammonium phosphate pH 6 Solvent A2: 0.1% formic acid in water Solvent B1: methanol Solvent B2: acetonitrile
The use of columns, solvents, flow rate and gradients is detailed in the table below. Detector: element specific detection by ICP-MS, running at m/z 180, the most abundant isotope of hafnium

Substance | Stability
Bis[μ3-2,2′-({[1R-(1α,2α,3α,4α,5α,6α)]-2,4,6-trihydroxylato-1κ^2O^2O^6,2κ^2O^2O^4,3κ^2O^4O^6-5-[(2-hydroxylato-3κO-ethyl)amino-3κN^5]cyclohexane-1,3-diyl}diimino-1κN^1,2κN^3)di-acetato-1κO,2κO′]trihafnium (IV) [Example 8] | 100%
Bis[μ3-2,2′-({[1R-(1α,2α,3α,4α,5α,6α)]-5-[(2-carboxylato-3κO-ethyl)amino-3κN^5]-2,4,6-trihydroxylato-1κ^2O^2O^6,2κ^2O^2O^4,3κ^2O^4O^6-cyclohexane-1,3-diyl}diimino-1κN^1,2κN^3)di-acetato-1κO,2κO′]trihafnium(IV) [Example 10] | 101%
Bis[μ3-3,3′-({[1R-(1α,2α,3α,4α,5α,6α)]-2,4,6-trihydroxylato-1κ^2O^2O^6,2κ^2O^2O^4,3κ^2O^4O^6-5-[(2-hydroxylato-3κO-ethyl)amino-3κN^5]cyclohexane-1,3-diyl}diimino-1κN1,2κN^3)di-propanoato-1κO,2κO′]trihafnium (IV) [Example 3] | 100%
Bis[μ3-3,3′-({[1R-(1α,2α,3α,4α,5α,6α)]-5-[(2S,3R)(3,4-dihydroxy-2-hydroxylato-3κO-butyl)amino-3κN^5]-2,4,6-trihydroxylato-1κ^2O^2O^6,2κ^2O^2O^4,3κ^2O^4O^6-cyclohexane-1,3-diyl}diimino-1κN^1,2κN^3)dipropanoato-1κO,2κO′]trihafnium(IV) [Example 5] | 101%
Hydroxido-3κO-[μ3-3,3′,3″-({[1R-(1α,2α,3α,4α,5α,6α)]-2,4,6-trihydroxylato-1κ^2O^2O^6, 2κ^2O^2O^4,3κ^2O^4O^6-cyclohexane-1,3,5-triyl}tris{methylimino-1κN^1,2κN^3,3κN^5}) tri-propanoato-1κO,2κO′,3κO″][μ3-3,3′-({[1R-(1α,2α,3α,4α,5α,6α)]-2,4,6-trihydroxylato-1κ^2O^2O^6,2κ^2O^2O^4,3κ^2O^4O^6-5-[methylamino-3κN^5]cyclohexane-1,3-diyl}bis{methyl-imino-1κN^1,2κN^3})dipropanonato-1κO,2κO′]trihafnium (IV) [Example 1] | 100%
